The term EC50 denotes the concentration needed to bring the measured effect to its halfway point. A higher EC50 goes with a need for much substance. By MIC50 is commonly meant the lowest concentration that inhibits either 50% of growth or 50% of the strains tested, depending on the study. The term MIC denotes the least concentration at which growth counts as inhibited. A word on the HC50: it is the concentration that lyses half of the red blood cells.

Values after ≈ are worked out from the molar mass of the structure shown. Values joined by “and” are separate entries in the source; they are usually repeats but may differ in a detail not shown here. Equal entries are not always repeated.

Data on five compounds can be found in US9469616B2, “Cyclic compounds and methods of making and using the same” (Cellceutix Corporation, priority 2011, dated 2016).

One data set has as its system NIH/3T3 cells. As to the kind of experiment: Cytotoxicity colorimetric assay. The class given is cell-based. To be noted: Mus musculus, NIH3T3, 1 h, one hour incubation in serum-free media. On the procedure: Cytotoxicity of the compounds are evaluated in a colorimetric assay using a transformed human liver cell line (HepG2, HB-8065) and an embryonic mouse cell line (NIH/3T3 cells, CRL-1658). This assay measures the bioreduction of a novel tetrazolium compound to a soluble formazan product by viable cells. HepG2 cells are seeded in 96 well plates at 2×10^4 cells/well in MEM medium with 10% fetal bovine serum (FBS) 24 hours prior to use. NIH/3T3 cells are seeded in 96 well plates at 2×10^4 cells/well in DMEM medium with 10% bovine calf serum (BCS) 24 hours prior to use. Cell monolayers are rinsed in serum-free media and incubated for one hour with a Compound in serum-free media. After incubation, the media is replaced with serum supplemented media and live cells are measured using the Cell Titer 96 Aqueous […] Assay kit (Promega, Madison, Wis.). EC50 values are determined using a four parameter logistic equation: Y=Bottom+(Top−Bottom)/(1+10^((Log EC50−X)*HillSlope)). […] Data is expressed as EC50 in μg/ml. Cytotoxicity is evaluated in a colorimetric assay using a transformed human liver cell line (HepG2, HB-8065) and an embryonic mouse cell line (NIH/3T3 cells, CRL-1658). This assay measures the bioreduction of a novel tetrazolium compound to a soluble formazan product by viable cells. HepG2 cells are seeded in 96 well plates at 3×10^4 cells/well in MEM medium with 10% fetal bovine serum (FBS) 24 hours prior to use. NIH/3T3 cells are seeded in 96 well plates at 2×10^4 cells/well in DMEM medium with 10% bovine calf serum (BCS) 24 hours prior to use. Cell monolayers are rinsed in serum-free media and incubated for one hour with test agent in serum-free media. After incubation, the media is replaced with serum supplemented media and live cells are measured using the Cell Titer 96 Aqueous […] Assay kit (Promega, Madison, Wis.). EC50 values are determined using a four parameter logistic equation: Y=Bottom+(Top−Bottom)/(1+10^((Log EC50−X)*HillSlope)).

In a further data set the test system is S. aureus (27660). As to the kind of experiment: MIC assay (Table 1). The class given is cell-based. To be noted: Staphylococcus aureus, isolate 27660.
In a further data set the test system is P. aeruginosa (10145). As to the kind of experiment: MIC assay (Table 1). Format: cell-based. To be noted: Pseudomonas aeruginosa, isolate 10145.
The subject of a further data set is E. coli (25922). Kind of data set: MIC assay (Table 1). Format: cell-based. To be noted: Escherichia coli, isolate 25922.
Another data set relates to HepG2. Kind of data set: Cytotoxicity colorimetric assay. Format: cell-based. To be noted: Homo sapiens, HepG2, 1 h, one hour incubation in serum-free media. The procedure: Cytotoxicity of the compounds are evaluated in a colorimetric assay using a transformed human liver cell line (HepG2, HB-8065) and an embryonic mouse cell line (NIH/3T3 cells, CRL-1658). This assay measures the bioreduction of a novel tetrazolium compound to a soluble formazan product by viable cells. HepG2 cells are seeded in 96 well plates at 2×10^4 cells/well in MEM medium with 10% fetal bovine serum (FBS) 24 hours prior to use. NIH/3T3 cells are seeded in 96 well plates at 2×10^4 cells/well in DMEM medium with 10% bovine calf serum (BCS) 24 hours prior to use. Cell monolayers are rinsed in serum-free media and incubated for one hour with a Compound in serum-free media. After incubation, the media is replaced with serum supplemented media and live cells are measured using the Cell Titer 96 Aqueous […] Assay kit (Promega, Madison, Wis.). EC50 values are determined using a four parameter logistic equation: Y=Bottom+(Top−Bottom)/(1+10^((Log EC50−X)*HillSlope)). Actual results from a representative cytotoxicity assay are shown below in Table 3. Data is expressed as EC50 in μg/ml. Cytotoxicity is evaluated in a colorimetric assay using a transformed human liver cell line (HepG2, HB-8065) and an embryonic mouse cell line (NIH/3T3 cells, CRL-1658). This assay measures the bioreduction of a novel tetrazolium compound to a soluble formazan product by viable cells. HepG2 cells are seeded in 96 well plates at 3×10^4 cells/well in MEM medium with 10% fetal bovine serum (FBS) 24 hours prior to use. NIH/3T3 cells are seeded in 96 well plates at 2×10^4 cells/well in DMEM medium with 10% bovine calf serum (BCS) 24 hours prior to use. Cell monolayers are rinsed in serum-free media and incubated for one hour with test agent in serum-free media. After incubation, the media is replaced with serum supplemented media and live cells are measured using the Cell Titer 96 Aqueous […] Assay kit (Promega, Madison, Wis.). EC50 values are determined using a four parameter logistic equation: Y=Bottom+(Top−Bottom)/(1+10^((Log EC50−X)*HillSlope)).

Data set [1] relates to Escherichia coli. Kind of data set: Antimicrobial activity (MIC) of aryl compounds (Table 2). Format: cell-based. To be noted: for MIC: Escherichia coli, Table 2. From the text:
(§1) A new series of aryl compounds was designed to evaluate the effect of charge and aromatic group hydrophobicity on the biological activity while still maintaining an amphiphilic topology. Four and six cationic charges were investigated, and three different central rings were used to tune the overall hydrophobicity: benzene, naphthalene, and phenylbenzene. The hydrophobicities of the aryl compounds were quantified using reversed-phase HPLC retention times (Rt). The antimicrobial activities (expressed as minimum inhibitory concentration (MIC)) of these compounds were tested against four pathogens, including both Gram-negative and Gram-positive bacteria, and their hemolysis (evaluated in terms of HC50, the lowest concentration that causes 50% hemolysis of red blood cells (RBCs)) was tested against human RBCs.

The subject of data set [2] is Staphylococcus aureus. Described as above. Format: cell-based. To be noted: for MIC: Staphylococcus aureus, Table 2, read-out: MIC S. aureus.
Description: as §1

Another data set concerns E. faecalis (29212). Kind of data set: MIC assay (Table 1). Format: cell-based. To be noted: Enterococcus faecalis, isolate 29212. The procedure:
(§2) The compounds are screened for antimicrobial activity against a number of clinically relevant pathogens. Minimum Inhibitory Concentrations (MIC) of each of the compounds are determined using standard procedures for clinical ocular isolates of Ciprofloxacin Susceptible (CS) S. aureus (CSSA), Ciprofloxacin Resistant (CR) S. aureus (CRSA), CS S. epidermidis (CSSE), CR S. epidermidis (CRSE), St. pneumoniae (SP), St. viridans group (SV), Moraxella Species (MS) (including Moraxella catarrhalis), H. influenzae (HI), P. aeruginosa (PA), Serratia marcescens (SM), S. aureus fluoroquinolone-susceptible, S. aureus fluoroquinolone-resistant, S. epidermidis (Coagulase-negative Staphylococcus) fluoroquinolone-susceptible, S. epidermidis (Coagulase-negative Staphylococcus) fluoroquinolone-resistant, and Serratia marcescens.
(§3) On the day of testing, a 640 μg/m (1280 μg/m for Serratia marcescens and Pseudomonas aeruginosa) concentration is prepared from a 1% stock solution in 0.01% acetic acid, 0.2% BSA in polypropylene tubes.
(§4) Ten μl of diluted 10× test agents is added to each well of one row of the 96 well polypropylene plates from column 2 to column 12 (column 1 is a control for bacteria alone, with no peptide). […] The same peptide is in each of the 8 rows. One plate contains dilutions of one test agent and 8 bacterial isolates.
(§5) Ninety μl of the bacterial suspensions is dispensed in each well from column 1 to column 12. Each bacterial isolate is placed in one row of a 96 well polypropylene plate containing the test agents. The plates are placed on shaker at 15 minutes at room temperature, and then incubated at 37° C. overnight. MICs are determined visually as the lowest concentration of drug that inhibits visible bacterial growth.
(§6) Data is expressed as MIC50 in μg/ml. The bacterial isolates were as follows: E. coli (25922); S. aureus (27660); E. faecalis (29212); P. aeruginosa (10145); and K. pneumoniae (13883).

For a further data set, the system named is K. pneumoniae (13883). Kind of data set: MIC assay (Table 1). Format: cell-based. To be noted: Klebsiella pneumoniae, isolate 13883, read-out: MIC50 K. Pnuemnoiae. On the procedure:
as §2, §3, §4, §5, §6

For the next data set, the system named is human RBCs. The class given is cell-based. To be noted: 1 h, pH 7.4.
Description: as §1
Cytotoxicity of the compounds is also evaluated in a hemolysis assay using human erythrocytes. Pooled whole human blood is centrifuged to separate the red blood cells (RBC). The isolated RBCs are rinsed and diluted in Tris-buffered saline (TBS buffer, pH 7.4) to obtain a 0.22% RBC stock suspension. 5 μL of a Compound stock solution is added to 45 μL of RBC suspension and incubated with shaking for 1 hour at 37° C. At the conclusion of the incubation time, samples are centrifuged and 30 μL of the supernatant is added to 100 μL of water. OD414 measurements are read for hemoglobin concentration. The bee venom peptide melittin is used as a positive control. EC50 values are determined as described above.
Cytotoxicity is also evaluated in a hemolysis assay using isolated human erythrocytes. Pooled whole human blood is centrifuged to separate the red blood cells (RBC). The isolated RBCs are rinsed and diluted in Tris-buffered saline (TBS buffer, pH 7.4) to obtain a 0.22% RBC stock suspension. […] OD405 measurements are read for hemoglobin concentration. […] EC50 values are determined using a four parameter logistic equation: Y=Bottom+(Top−Bottom)/(1+10^((Log EC50−X)*HillSlope)).

The next data set relates to RAW 264.7 cells. As to the kind of experiment: Cytokine production in RAW 264.7 cells (ELISA). Format: cell-based, murine. To be noted: 5.0 μg/mL preincubation 1 hour, LPS 100 ng/mL 18 hours; FIG. 1B.
Data set [3] deals with Escherichia coli. To be noted: Data from Thaker, et al., J. Med. Chem., 2011, 54, 2241; cited from earlier work.
Data set [4] relates to Staphylococcus aureus. To be noted: Data from Thaker, et al., J. Med. Chem., 2011, 54, 2241; cited from earlier work.

Take `NCCCOc1cc(OCCCN)cc(-c2cccc(-c3cc(OCCCN)cc(OCCCN)c3)c2)c1` [Compound 111]: the values for the EC50 in the data set on NIH/3T3 cells and with HepG2 were 814 µg/mL (≈ 1560 µM) and more than 1020 µg/mL, respectively. Moreover, the MIC50 against S. aureus (27660) was 12.5 µg/mL (≈ 23.9 µM); with P. aeruginosa (10145) it was more than 50 µg/mL; with E. coli (25922), 50 µg/mL (≈ 95.7 µM); in the data set with E. faecalis (29212), 50 µg/mL (≈ 95.7 µM); with K. pneumoniae (13883), more than 50 µg/mL. Also, the MIC in the data set with Escherichia coli [1] was 50 µg/mL (≈ 95.7 µM); in the data set with Staphylococcus aureus [2] it was 12.5 µg/mL (≈ 23.9 µM). Besides, in the data set with Escherichia coli [1], the “Selectivity (HC50/MIC) E. coli” value is more than 20. Besides, the “Selectivity (HC50/MIC) S. aureus” value in the data set on Staphylococcus aureus [2] is more than 80.

As to `NCCCOc1cc(-c2cc(-c3ccccc3)cc(-c3cc(OCCCN)c(OCCCN)c(OCCCN)c3)c2)cc(OCCCN)c1OCCCN` [Compound 115], in the data set on NIH/3T3 cells, the response was half-maximal at 110 µg/mL (≈ 147 µM) (EC50). The MIC50 was 12.5 µg/mL (≈ 16.8 µM) against S. aureus (27660); 25 µg/mL (≈ 33.6 µM) in the data set with P. aeruginosa (10145); 6.25 µg/mL (≈ 8.39 µM) against E. coli (25922); more than 50 µg/mL against E. faecalis (29212); 12.5 µg/mL (≈ 16.8 µM) in the data set on K. pneumoniae (13883). For the same compound, the HC50 with human RBCs was more than 1000 µg/mL. In addition, the “LPS-induced TNF production” value with RAW 264.7 cells is recorded as “did not cause any additional increase in TNF production”. The MIC against Escherichia coli [1] and in the data set with Staphylococcus aureus [2] was 6.25 µg/mL (≈ 8.39 µM) throughout. Moreover, in the data set on Escherichia coli [1], the “Selectivity (HC50/MIC) E. coli” value is more than 160. Further, the “Selectivity (HC50/MIC) S. aureus” value with Staphylococcus aureus [2] is given as more than 160.

Take `NCCCOc1cc(OCCCN)cc(-c2ccc3ccc(-c4cc(OCCCN)cc(OCCCN)c4)cc3c2)c1` [Compound 119]: the MIC50 with S. aureus (27660) amounted to 12.5 µg/mL (≈ 21.8 µM); in the data set with P. aeruginosa (10145), 25 µg/mL (≈ 43.6 µM); against E. coli (25922) it was 25 µg/mL (≈ 43.6 µM); with E. faecalis (29212) it was 6.25 µg/mL (≈ 10.9 µM); in the data set on K. pneumoniae (13883), 50 µg/mL (≈ 87.3 µM). The same compound displayed an HC50 in the data set with human RBCs of 195 µg/mL. Moreover, in the data set on RAW 264.7 cells, the “LPS-induced TNF production” value is “did not cause any additional increase in TNF production”. For the same compound, the results for the MIC with Escherichia coli [1] and in the data set with Staphylococcus aureus [2] were 25 µg/mL (≈ 43.6 µM) and 12.5 µg/mL (≈ 21.8 µM), respectively. Also, in the data set with Escherichia coli [1], the “Selectivity (HC50/MIC) E. coli” value is 7.8. In addition, in the data set with Staphylococcus aureus [2], the “Selectivity (HC50/MIC) S. aureus” value came to 15.6.

As to `NCCCOc1cc(C#Cc2ccc3ccc(C#Cc4cc(OCCCN)cc(OCCCN)c4)cc3c2)cc(OCCCN)c1` [Compound 120], the EC50 with NIH/3T3 cells is 15.2 µg/mL (≈ 24.5 µM); in the data set on HepG2, 36.4 µg/mL (≈ 58.6 µM). The MIC50 stood at 3.13 µg/mL (≈ 5.04 µM) with S. aureus (27660); 6.25 µg/mL (≈ 10.1 µM) with P. aeruginosa (10145); 3.13 µg/mL (≈ 5.04 µM) against E. coli (25922); 1.56 µg/mL (≈ 2.51 µM) with E. faecalis (29212); 6.25 µg/mL (≈ 10.1 µM) in the data set with K. pneumoniae (13883).

As to MSI-78, the “MIC E. coli” value with Escherichia coli [3] is 16 µg/mL and 16 to 32 µg/mL. The “MIC S. aureus” value in the data set with Staphylococcus aureus [4] was 16 µg/mL and 8 to 16 µg/mL.
